Experimental data: US9549935B2, “Methods and compositions for treating migraines using noribogaine” (DemeRx, Inc., priority 2014, dated 2017)

Experiment: Plasma noribogaine glucuronide pharmacokinetics after single oral noribogaine doses in healthy volunteers
Type: in vivo, human
Details: for AUC0-216 of noribogaine glucuronide / AUC0-∞ of noribogaine glucuronide / Cmax of noribogaine glucuronide / Tmax of noribogaine glucuronide / t1/2 of noribogaine glucuronide: healthy volunteers, mean (SD), n = 6
Experimental: Blood was obtained for pharmacokinetic assessments pre-dose and then at 0.25, 0.5, 0.75, 1.0, 1.25, 1.5, 2, 2.5, 3, 3.5, 4, 4.5, 5, 5.5, 6, 7, 8, 10, 12, 14, 18, 24, 30, 36, 48, 60, 72, 96, 120, 168 and 216 hours post-dose. Samples were centrifuged and plasma stored at −70° C. until analyzed. Block 24 hour urine collections were obtained following study drug administration for the 30 and 60 mg cohorts. Aliquots were frozen at −20° C. until analyzed.
Plasma noribogaine glucuronide concentrations were determined in the 30 mg and 60 mg dose groups using a validated sensitive LCMSMS method. Sample preparation involved deproteinization of plasma samples with acetonitrile, drying the samples under a stream of nitrogen and reconstitution of sample with acetonitrile:B.P. water (5:95, v/v) containing 0.1% (v/v) formic acid. The compounds were separated by a 150×2.0 mm Luna 5 μm C18 column and detected with a triple-quadrupole API 4000 or 5000 mass spectrometer using electrospray ionization in positive mode and multiple reaction monitoring. Noribogaine-d4 was used as the internal standard. The precursor-product ion transition values for noribogaine glucuronide were m/z 472.8→297.3, and for the internal standard noribogaine-d4 m/z 301.1→122.2. Analyst® software was used for data acquisition and processing. The ratio of the peak area of noribogaine glucuronide to the internal standard noribogaine-d4 was used for calibration and measurement of the unknown concentration of noribogaine glucuronide. The LLOQ was 0.050 ng/ml noribogaine glucuronide. The calibration curve was between 0.050 and 6.400 ng/ml noribogaine glucuronide. Mobile phases was the same as method A. Binary flow: Initial concentration was 6% mobile phase B; hold at 6% mobile phase B for 0.5 minutes and linear rise to 90% mobile phase B over 2 minutes; hold at 90% mobile phase B for 1 minute and then drop back to 6% mobile phase B over 0.01 minute. Equilibrate system for 3.5 minutes. Total run time was 7 minutes. The within- and between-day assay precision was <11%, and the within- and between-day assay accuracy was <10%.
Noribogaine and noribogaine glucuronide concentrations above the limit of quantification were used to calculate pharmacokinetic parameters using model-independent methods. The maximum plasma concentration (Cmax) and time to maximum plasma concentration (Tmax) were the observed values. Plasma concentration data in the post-distribution phase of the plasma concentration-time plot were fitted using linear regression to the formula ln C=ln Co−t.Kel, where Co was the zero-time intercept of the extrapolated terminal phase and Kel was the terminal elimination rate constant. […] The area under the concentration-time curve (AUC) from time zero to the last determined concentration-time point (tf) in the post distribution phase was calculated using the trapezoidal rule. The area under the curve from the last concentration-time point in the post distribution phase (Ctf) to time infinity was calculated from AUCt-∞=Ctf/Kel. The concentration used for Ctf was the last determined value above the LLOQ at the time point. The total AUC0-∞ was obtained by adding AUCtf and AUCt-∞. Noribogaine apparent clearance (CL/F) was determined using the formula CL/F=Dose/AUC0-∞×1000, and apparent volume of distribution (Vd/F) was determined using the formula Vd/F=(CL/F)/Kel. Total urine noribogaine was the sum of both analytes.

[1] = 30 mg and 60 mg noribogaine dose groups, plasma
[2] = after single oral 30 mg noribogaine, plasma
[3] = after single oral 60 mg noribogaine, plasma

CC[C@H]1C[C@@H]2C[C@H]3c4[nH]c5ccc(OC6OC(C(=O)O)C(O)C(O)C6O)cc5c4CCN(C2)[C@@H]13 (some centres unmarked) [Noribogaine glucuronide, noribogaine glucuronide]
Mean half-life of plasma noribogaine glucuronide (30 mg and 60 mg noribogaine dose groups): 21 to 23 h
time by which noribogaine glucuronide was detected in all subjects [1]: ≤ 0.75 h
time of peak noribogaine glucuronide concentrations after noribogaine dosing [1]: 3 to 4 h
AUC0-216 of noribogaine glucuronide [2]: 25.7 (9.1) ng · hr/ml
AUC0-∞ of noribogaine glucuronide [2]: 25.8 (9.3) ng · hr/ml
Cmax of noribogaine glucuronide [2]: 1.8 (0.6) ng/ml
Tmax of noribogaine glucuronide [2]: 3.0 (0.6) hr
t1/2 of noribogaine glucuronide [2]: 20.6 (4.9) hr
AUC0-216 of noribogaine glucuronide [3]: 65.0 (21.5) ng · hr/ml
AUC0-∞ of noribogaine glucuronide [3]: 67.1 (21.9) ng · hr/ml
Cmax of noribogaine glucuronide [3]: 4.1 (1.2) ng/ml
Tmax of noribogaine glucuronide [3]: 3.8 (1.2) hr
t1/2 of noribogaine glucuronide [3]: 23.1 (3.0) hr
proportion of noribogaine glucuronide Cmax and AUC relative to noribogaine (both dose groups (30 mg and 60 mg)): 3-4%
